Measured values from ChEMBL document CHEMBL1138055, “Tetraoxane antimalarials and their reaction with Fe(II)” (J Med Chem, 2006).
Where “and” joins values, the source holds several entries; their conditions need not be identical. Identical values can stand only once.

Columns and labels:
Mus musculus [1] = experiment: Effect on survival of CD1 mice (Mus musculus) infected with Plasmodium berghei KBG173 at 600 mg/kg/day, perorally; assay type: functional, organism-based; parameters: route oral; conditions: route oral
UO-31 = experiment: Antiproliferative activity against human UO31 cell line after 48 hrs; assay type: functional; conditions: Homo sapiens, UO-31, 48 h; for CC50: read-out: LC50 (the source's name)
Plasmodium falciparum [2] = experiment: microbe, parasite or virus in culture; conditions: W2
Description: (§1) Antimalarial activity against Plasmodium falciparum W2

CAKI-1 = experiment: Antiproliferative activity against human CAKI1 cell line after 48 hrs; assay type: functional; conditions: CAKI-1, 48 h
ACHN = experiment: Antiproliferative activity against human ACHN cell line after 48 hrs; assay type: functional; conditions: Homo sapiens, ACHN, 48 h
Vero [3] = experiment: Selectivity index, IC50 for VERO cells/IC50 for Plasmodium falciparum D6; assay type: functional
Mus musculus [4] = experiment: Effect on survival of CD1 mice (Mus musculus) infected with Plasmodium berghei KBG173 at 200 mg/kg/day, perorally; assay type: functional; conditions: route oral
COLO 205 = experiment: Antiproliferative activity against human COLO 205 cell line after 48 hrs; assay type: functional; conditions: Homo sapiens, COLO 205, 48 h
Mus musculus [5] = experiment: Effect on survival of CD1 mice (Mus musculus) infected with Plasmodium berghei KBG173 at 50 mg/kg/day, perorally; assay type: functional; conditions: route oral
Plasmodium falciparum [6] = experiment: microbe, parasite or virus in culture; conditions: D6
Description: (§2) Antimalarial activity against Plasmodium falciparum D6

Vero [7] = experiment: Selectivity index, IC50 for VERO cells/IC50 for Plasmodium falciparum W2; assay type: functional
RPMI-8226 = experiment: Antiproliferative activity against human RPMI8226 cell line after 48 hrs; assay type: functional
NCI-H460 = experiment: Antiproliferative activity against human NCI-H460 cell line after 48 hrs; assay type: functional; conditions: NCI-H460, 48 h
HOP-62 = experiment: Antiproliferative activity against human HOP62 cell line after 48 hrs; assay type: functional; conditions: Homo sapiens, HOP-62, 48 h
Vero [8] = experiment: Selectivity index, IC50 for VERO cells/LC50 for UO31 cells; assay type: functional
IGROV-1 = experiment: Antiproliferative activity against human IGROV1 cell line after 48 hrs; assay type: functional; conditions: Homo sapiens, IGROV-1, 48 h; for CC50: read-out: LC50 (the source's name)
NCI-H23 = experiment: Antiproliferative activity against human NCI-H23 cell line after 48 hrs; assay type: functional; conditions: NCI-H23, 48 h
SF-268 = experiment: Antiproliferative activity against human SF268 cell line after 48 hrs; assay type: functional; conditions: SF-268, 48 h
Vero [9] = experiment: Cytotoxicity against VERO cells; assay type: functional, cell-based; conditions: Chlorocebus sabaeus
TK-10 = experiment: Antiproliferative activity against human TK10 cell line after 48 hrs; assay type: functional; conditions: TK-10, 48 h
Plasmodium falciparum [10] = tested on: Plasmodium falciparum
Description: as §2

Plasmodium falciparum [11] = tested on: Plasmodium falciparum; remark: listed apart in the source
Description: (§3) Antimalarial activity against Plasmodium falciparum TM91C235

[12] = Half life in mouse liver microsomes; assay type: ADME, Microsome
LOX IMVI = experiment: Antiproliferative activity against human LOX IMVI cell line after 48 hrs; assay type: functional; conditions: for CC50: read-out: LC50 (the source's name)
SF-539 = experiment: Antiproliferative activity against human SF539 cell line after 48 hrs; assay type: functional; conditions: SF-539, 48 h
[13] = Half life in human liver microsomes; assay type: ADME, Microsome
Liver microsomes = experiment: Intrinsic clearance in human liver microsomes; assay type: ADME, Microsome
SK-MEL-28 = experiment: Antiproliferative activity against human SK-MEL28 cell line after 48 hrs; assay type: functional; conditions: SK-MEL-28, 48 h
Mus musculus [14] = species: Mus musculus; experiment: Intrinsic clearance in mouse liver microsomes; assay type: ADME, Microsome
Plasmodium falciparum [15] = tested on: Plasmodium falciparum; remark: listed apart in the source
Description: as §1

PBMC [16] = experiment: Selectivity index, IC50 for PBMC/IC50 for Plasmodium falciparum D6; assay type: functional
PBMC [17] = experiment: Selectivity index, IC50 for PBMC/IC50 for Plasmodium falciparum TM91C235; assay type: functional
PBMC [18] = experiment: Cytotoxicity against human peripheral blood mononuclear cells; assay type: functional, cell-based
PBMC [19] = experiment: Selectivity index, IC50 for PBMC/IC50 for Plasmodium falciparum W2; assay type: functional
PBMC [20] = experiment: Cytotoxicity against PHA-stimulated human PBMC; assay type: functional, cell-based
786-0 = experiment: Antiproliferative activity against human 786-0 cell line after 48 hrs; assay type: functional; conditions: 786-0, 48 h
EKVX = experiment: Antiproliferative activity against human EKVX cell line after 48 hrs; assay type: functional; conditions: Homo sapiens, EKVX, 48 h
PBMC [21] = experiment: Selectivity index, IC50 for PBMC/LC50 for UO31 cells; assay type: functional
Plasmodium falciparum [22] = experiment: microbe, parasite or virus in culture; conditions: TM91C235
Description: as §3

Mus musculus [23] = experiment: Effect on survival of CD1 mice (Mus musculus) infected with Plasmodium berghei KBG173 at 4 mg/kg/day, peroral; assay type: functional; conditions: route oral
Mus musculus [24] = experiment: Effect on survival of CD1 mice (Mus musculus) infected with Plasmodium berghei KBG173 at 2 mg/kg/day, perorally; assay type: functional; conditions: route oral
[25] = read-out: LC50 (the source's name)

SMILES: CCCC(=O)CC[C@@H](C)[C@H]1CC[C@H]2[C@@H]3[C@H](OC(C)=O)C[C@@H]4CC5(CC[C@]4(C)[C@H]3C[C@H](OC(C)=O)[C@]12C)OOC1(CCCCC1)OO5
- Activity (Mus musculus [1]): 28 days
- GI50 (UO-31): < 0.01 µM
- TGI (UO-31): < 0.01 µM
- CC50 (UO-31): 0.017 µM
- IC50 (Plasmodium falciparum [2]): 0.0068 µM
- GI50 (CAKI-1): 0.18 µM
- TGI (CAKI-1): 0.4 µM
- CC50 (CAKI-1; [25]): 0.91 µM
- GI50 (ACHN): 1.34 µM
- LC50 (ACHN): 5.12 µM
- TGI (ACHN): 2.62 µM
- Selectivity index (Vero [3]): 823
- Activity (Mus musculus [4]): 24.4 days
- GI50 (COLO 205): 1.77 µM
- TGI (COLO 205): 3.72 µM
- CC50 (COLO 205; [25]): 7.82 µM
- Activity (Mus musculus [5]): 14.2 days
- IC50 (Plasmodium falciparum [6]): 0.0148 µM
- Selectivity index (Vero [7]): 1763
- TGI (RPMI-8226; Homo sapiens, RPMI-8226, 48 h): 3.47 µM
- CC50 (RPMI-8226; [25]): 1.28 µM and 9.37 µM
- GI50 (NCI-H460): 0.18 µM
- TGI (NCI-H460): 0.59 µM
- CC50 (NCI-H460; [25]): 2.6 µM
- GI50 (HOP-62): 0.44 µM
- TGI (HOP-62): 1.72 µM
- CC50 (HOP-62; [25]): 5.4 µM
- Selectivity index (Vero [8]): 726
- GI50 (IGROV-1): 0.19 µM
- TGI (IGROV-1): 0.46 µM
- CC50 (IGROV-1): 1.36 µM
- GI50 (NCI-H23): 0.61 µM
- TGI (NCI-H23): 1.99 µM
- CC50 (NCI-H23; [25]): 4.64 µM
- GI50 (SF-268): 1.57 µM
- TGI (SF-268): 3.9 µM
- CC50 (SF-268; [25]): 9.68 µM
- IC50 (Vero [9]): 12.3 µM
- GI50 (TK-10): 1.67 µM
- TGI (TK-10): 3.62 µM
- CC50 (TK-10; [25]): 7.84 µM

SMILES: CC(=O)O[C@H]1C[C@H]2[C@@H]([C@H](OC(C)=O)C[C@@H]3CC4(CC[C@@]32C)OOC2(CCC(C(=O)NCCN(C)C)CC2)OO4)[C@@H]2CC[C@H]([C@H](C)CCC(=O)NCCN(C)C)[C@@]12C (stereo in doubt; 11)
- IC50 (Plasmodium falciparum [10]): 0.0756 µM
- IC90 (Plasmodium falciparum [10]): 0.0941 µM
- IC50 (Plasmodium falciparum [11]): 0.0814 µM
- IC90 (Plasmodium falciparum [11]): 0.11 µM
- half-life [12]: > 2 h
- GI50 (LOX IMVI): 1.18 µM
- TGI (LOX IMVI): 2.82 µM
- CC50 (LOX IMVI): 19.9 µM
- GI50 (SF-539): 1.47 µM
- TGI (SF-539): 2.99 µM
- CC50 (SF-539; [25]): 9.93 µM
- half-life [13]: > 2 h
- CL (Liver microsomes): < 0.6 mL/min/g
- GI50 (SK-MEL-28): 1.92 µM
- TGI (SK-MEL-28): 11.3 µM
- CC50 (SK-MEL-28; [25]): 37 µM
- CL (Mus musculus [14]): < 0.6 mL/min/g
- GI50 (IGROV-1): 0.9 µM
- TGI (IGROV-1): 2.62 µM
- CC50 (IGROV-1): 13.4 µM
- IC50 (Plasmodium falciparum [15]): 0.113 µM
- IC90 (Plasmodium falciparum [15]): 0.126 µM

SMILES: CC(=O)O[C@H]1C[C@H]2[C@@H]([C@H](OC(C)=O)C[C@@H]3CC4(CC[C@@]32C)OOC2(CCC(C(=O)Nc3ccccc3)CC2)OO4)[C@@H]2CC[C@H]([C@H](C)CCC(=O)Nc3ccccc3)[C@@]12C (stereo in doubt; 13)
- Selectivity index (PBMC [16]): >33000
- GI50 (UO-31): 0.05 µM
- TGI (UO-31): 0.19 µM
- CC50 (UO-31): 0.51 µM
- IC50 (Plasmodium falciparum [10]): 0.0062 µM
- IC90 (Plasmodium falciparum [10]): 0.0113 µM
- IC50 (Plasmodium falciparum [11]): 0.0081 µM
- IC90 (Plasmodium falciparum [11]): 0.0192 µM
- Selectivity index (PBMC [17]): >25000
- IC50 (PBMC [18]): > 200 µM
- half-life [12]: > 2 h
- GI50 (LOX IMVI): 0.37 µM
- TGI (LOX IMVI): 1.69 µM
- CC50 (LOX IMVI): 7.15 µM
- half-life [13]: > 2 h
- CL (Liver microsomes): < 0.6 mL/min/g
- Selectivity index (PBMC [19]): >18000
- IC50 (PBMC [20]): > 200 µM
- GI50 (786-0): 0.45 µM
- LC50 (786-0): 67.9 µM
- TGI (786-0): 14.2 µM
- CL (Mus musculus [14]): < 0.6 mL/min/g
- GI50 (EKVX): 0.9 µM
- LC50 (EKVX): > 100 µM
- TGI (EKVX): > 100 µM
- Selectivity index (PBMC [21]): >392
- IC50 (Plasmodium falciparum [15]): 0.0114 µM
- IC90 (Plasmodium falciparum [15]): 0.0208 µM

SMILES: CCN(CC)CCCC(C)Nc1ccnc2cc(Cl)ccc12 (stereo unspecified) [CHLOROQUINE]
- IC90 (Plasmodium falciparum [2]): 0.491 µM
- IC90 (Plasmodium falciparum [22]): 0.269 µM
- IC90 (Plasmodium falciparum [6]): 0.0176 µM
- Activity (Mus musculus [23]): 25.6 days
- Activity (Mus musculus [24]): 12.8 days
